Results from PMC9814838, “The orphan nuclear receptor Nurr1 is responsive to non-steroidal anti-inflammatory drugs” (Communications Chemistry, 2020).
Where two headings read alike, the source gives them in different places.

Columns and labels:
Type in all cases: cell-based
Nur77 = target: T1, Nur77 (Homo sapiens, UniProt P22736); experiment: Gal4-Nur77 hybrid reporter gene assay in HEK293T cells; conditions: for Nur77 activity 10μM (mean fold activation) / Nur77 activity 30μM (mean fold activation): primary screen, n ≥ 2, ^# not significant vs VP16 control; for IC50: HEK293T, n≥3; for IC50 / Nur77 min./max. activation: mean ± SD; for Nur77 min./max. activation: compared to 0.1% DMSO; for Nur77 activity in words or dash: dash = not reported as active versus VP16 control (p < 0.05)
T1 construct: Nur77 (uniprot entry: hNUR77–P22736, residues 358–598); expressed in transfected cells; host or cells: HEK293T
T1 sequence (P22736 358-598): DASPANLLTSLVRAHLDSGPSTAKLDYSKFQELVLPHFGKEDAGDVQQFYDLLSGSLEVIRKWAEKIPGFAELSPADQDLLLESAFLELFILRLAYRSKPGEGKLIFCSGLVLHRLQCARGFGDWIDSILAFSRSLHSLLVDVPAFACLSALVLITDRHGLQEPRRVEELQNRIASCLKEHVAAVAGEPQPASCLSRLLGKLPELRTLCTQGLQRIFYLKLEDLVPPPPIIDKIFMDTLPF

Nurr1 = target: T2, Nurr1 (Homo sapiens, UniProt P43354); experiment: Gal4-Nurr1 hybrid reporter gene assay in HEK293T cells; conditions: for Nurr1 activity 10μM (mean fold activation) / Nurr1 activity 30μM (mean fold activation): primary screen, n ≥ 2, ^# not significant vs VP16 control
T2 construct: Nurr1 (uniprot entry: hNURR1–P43354, residues 360–598); expressed in transfected cells; host or cells: HEK293T
T2 sequence (P43354 360-598): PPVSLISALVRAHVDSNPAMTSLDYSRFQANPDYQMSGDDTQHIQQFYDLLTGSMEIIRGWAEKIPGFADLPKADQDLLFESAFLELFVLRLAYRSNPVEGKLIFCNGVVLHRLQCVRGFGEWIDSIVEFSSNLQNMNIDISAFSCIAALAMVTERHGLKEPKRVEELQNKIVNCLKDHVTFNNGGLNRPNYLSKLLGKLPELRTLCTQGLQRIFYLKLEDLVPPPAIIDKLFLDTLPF

NOR1 = target: T3, NOR1 (Homo sapiens, UniProt Q92570); experiment: Gal4-NOR1 hybrid reporter gene assay in HEK293T cells; conditions: for Nor1 activity 10μM (mean fold activation) / Nor1 activity 30μM (mean fold activation): primary screen, n ≥ 2, ^# not significant vs VP16 control; for NOR1 min./max. activation: compared to 0.1% DMSO; for NOR1 activity in words or dash: dash = not reported as active versus VP16 control (p < 0.05)
T3 construct: NOR1 (isoform alpha; uniprot entry: hNOR1–Q92570-1, residues 393–626); expressed in transfected cells; host or cells: HEK293T
T3 sequence (Q92570 393-626): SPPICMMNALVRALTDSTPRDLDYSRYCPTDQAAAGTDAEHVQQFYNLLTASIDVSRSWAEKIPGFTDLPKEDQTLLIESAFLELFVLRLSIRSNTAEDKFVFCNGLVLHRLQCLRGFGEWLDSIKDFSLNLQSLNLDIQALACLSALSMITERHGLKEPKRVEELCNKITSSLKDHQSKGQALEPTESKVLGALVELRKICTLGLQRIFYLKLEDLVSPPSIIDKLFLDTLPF

[1] = HEK293T, mean ± SD, n≥3, read-out: NOR1 IC50

Structure (SMILES) | Nur77 activity 10μM (mean fold activation) (Nur77) | Nur77 activity 30μM (mean fold activation) (Nur77) | Nurr1 activity 10μM (mean fold activation) (Nurr1) | Nurr1 activity 30μM (mean fold activation) (Nurr1) | Nor1 activity 10μM (mean fold activation) (NOR1) | Nor1 activity 30μM (mean fold activation) (NOR1) | IC50 (Nur77) | Nur77 min./max. activation (Nur77) | Nur77 activity in words or dash (Nur77) | Nurr1 activity in words or dash (Nurr1; dash = not reported as active versus VP16 control (p < 0.05)) | IC50 (NOR1; [1]) | NOR1 min./max. activation (NOR1; mean ± SD) | NOR1 activity in words or dash (NOR1) | IC50 (NOR1)
CC(=O)Oc1ccccc1C(=O)O [acetylsalicylic acid] | 0.98 fold | 0.97 fold | 1.02 fold | 0.92 fold | 1.03 fold | 0.93 fold |  |  |  |  |  |  |  | 
Nc1c(CC(=O)O)cccc1C(=O)c1ccc(Br)cc1 [bromfenac] | 1.08 fold | 1.03 fold | 1.09 fold | 1.12 fold | 1.26 fold | 1.09 fold |  |  |  |  |  |  |  | 
CC(C(=O)O)c1ccc2c(c1)[nH]c1ccc(Cl)cc12 (stereo not shown) [carprofen] | 1.08 fold | 0.95 fold | 1.10 fold | 1.19 fold | 1.17 fold | 0.99 fold |  |  |  |  |  |  |  | 
Cc1ccc(-c2cc(C(F)(F)F)nn2-c2ccc(S(N)(=O)=O)cc2)cc1 [celecoxib] | 0.75 fold | toxic | 0.93 fold | 0.97 fold | 0.92 fold | toxic |  |  |  |  |  |  |  | 
O=C(O)Cc1ccccc1Nc1c(Cl)cccc1Cl [diclofenac] | 0.94 fold | toxic | 1.19 fold | toxic | 1.11 fold | toxic |  |  |  |  |  |  |  | 
CCc1cccc2c3c([nH]c12)C(CC)(CC(=O)O)OCC3 (stereo not shown) [etodolac] | 0.85 fold | 0.90 fold | 1.06 fold | 0.93 fold | 0.95 fold | 0.91 fold |  |  |  |  |  |  |  | 
O=C(OCCOCCO)c1ccccc1Nc1cccc(C(F)(F)F)c1 [etofenamate] | 0.84 fold | toxic | 0.97 fold | toxic | 1.07 fold | toxic |  |  |  |  |  |  |  | 
CC(C(=O)O)c1cccc(Oc2ccccc2)c1 (stereo not shown) [fenoprofen] | 0.99 fold | 0.86 fold | 1.00 fold | 0.91 fold | 1.01 fold | 0.81 fold |  |  |  |  |  |  |  | 
O=C(O)c1ccccc1Nc1cccc(C(F)(F)F)c1 [flufenamic acid] | 0.99 fold | toxic | 1.14 fold | toxic | 1.36 fold | toxic |  |  |  |  |  |  |  | 
Cc1c(Nc2ncccc2C(=O)O)cccc1C(F)(F)F [flunixin] | toxic | toxic | toxic | toxic | toxic | toxic |  |  |  |  |  |  |  | 
CC(C(=O)O)c1ccc(-c2ccccc2)c(F)c1 (stereo not shown) [flurbiprofen] | 0.93 fold | 0.96 fold | 1.25 fold | 1.05 fold | 0.98 fold | 0.91 fold |  |  |  |  |  |  |  | 
CC(C)Cc1ccc(C(C)C(=O)O)cc1 (stereo not shown) [ibuprofen] | 0.99 fold | 0.89 fold | 1.02 fold | 0.90 fold | 0.95 fold | 0.96 fold |  |  |  |  |  |  |  | 
COc1ccc2c(c1)c(CC(=O)O)c(C)n2C(=O)c1ccc(Cl)cc1 [indometacin] | 0.83 fold | toxic | 0.96 fold | 0.91 fold | 0.87 fold | toxic |  |  |  |  |  |  |  | 
Cc1cc(NC(=O)C2=C(O)c3ccccc3S(=O)(=O)N2C)no1 [isoxicam] | 0.96 fold | 0.80 fold | 0.98 fold | 0.90 fold | 1.02 fold | 0.87 fold |  |  |  |  |  |  |  | 
CC(C(=O)O)c1cccc(C(=O)c2ccccc2)c1 (stereo not shown) [ketoprofen] | 1.04 fold | 0.88 fold | 1.00 fold | 0.94 fold | 1.10 fold | 0.96 fold |  |  |  |  |  |  |  | 
CN1C(C(=O)Nc2ccccn2)=C(O)c2sc(Cl)cc2S1(=O)=O [lornoxicam] | 0.86 fold | 0.64 fold | 0.93 fold | 0.86 fold | 0.92 fold | 0.73 fold | 9.4 ± 6.3 µM | 0.63 ± 0.09 | inverse agonism | without affecting Nurr1 activity | 24 ± 3 µM | 0.62 ± 0.02 | inverse agonism | 
Cc1cccc(Nc2ccccc2C(=O)O)c1C [mefenamic acid] | 0.80 fold | toxic | 0.90 fold | 0.86 fold | 0.95 fold | toxic |  |  |  |  |  |  |  | 
Cc1cnc(NC(=O)C2=C(O)c3ccccc3S(=O)(=O)N2C)s1 [meloxicam] |  |  |  |  |  |  |  | 0.23 ± 0.02 |  |  |  | 0.1 ± 0.1 |  | 84 ± 17 µM
COc1ccc(-c2noc(CC(=O)O)c2-c2ccc(OC)cc2)cc1 [mofezolac] | 0.98 fold | 0.69 fold | 0.94 fold | 0.94 fold | 1.00 fold | 0.78 fold | 30 ± 1 µM | 0.38 ± 0.02 | inverse agonism |  | 33 ± 5 µM | 0.32 ± 0.10 | inverse agonism | 
COc1ccc2cc(CCC(C)=O)ccc2c1 [nabumeton] | 1.57 fold | 1.44 fold | 1.44 fold | 1.46 fold | 1.69 fold | 1.74 fold |  |  |  |  |  |  |  | 
